This note sets out measurements from article PMC12693419, “Design, Synthesis, Biological Evaluation, and In Silico Studies of Novel Multitarget Cinnamic Acid Hybrids” (Molecules, 2025).

Like-named read-outs stand apart in the source and are kept apart here. Some results are limits rather than exact numbers.

Experiment [1] in a line: In vitro determination of NO release with Griess reagent. The note with it: 100 μM, L-cysteine, pH 7.4, 37 °C, 60 min. In short, it runs like this: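 Compounds at 100 µM final in phosphate buffer pH 7.4 with 0.5 mM L-cysteine, incubated 60 min at 37 °C, also run without cysteine. Nitrite detected with Griess reagent after 10 min at room temperature by absorbance at 540 nm. Reported as % NO2⁻ (mol/mol) in the presence of L-cysteine.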

The test system of a further experiment is HeLa cells. Briefly: MTT viability assay. It counts as cell-based. As to conditions: Homo sapiens, 48 h. As for the experimental part:
(§1) HeLa, MCF-7, U251, U87, MDA-MB-435, and MDA-MB-231 cancer cell lines were maintained in incubators at 37 °C with 5% CO2 in DMEM medium supplemented with 10% (v/v) fetal bovine serum (FBS) and antibiotics/antimycotics. All cell lines used in this study originate from the Laboratory of Biochemistry, Department of Chemistry, Aristotle University of Thessaloniki. They are low-passage, mycoplasma-free cancer cell lines that have been extensively used over the past 25 years in numerous studies across various fields of cancer research, including drug cytotoxicity testing.
(§2) All cell lines tested were seeded in 96-well plates at a concentration of 6 × 10^3 cells per well, except HeLa, which were seeded at 3 × 10^3 cells per well. The day after, cells were exposed to increasing concentrations of the compounds for 48 h. Cell viability was determined using the 3-(4,5-dimethylthiazol-2-yl)-2,5-diphenyltetrazolium bromide (MTT) assay, a colorimetric assessment of cellular metabolic activity as described previously. Absorbance values from treated samples were normalized to those of untreated controls, which were assigned to a 100% viability value.

A further experiment concerns MCF-7 cells. The experiment can be described thus: MTT viability assay. The note with it: Homo sapiens, MCF7, 48 h. It counts as cell-based. As for the experimental part: as §1, §2
A further experiment relates to MDA-MB-231 cells. The experiment can be described thus: MTT viability assay. It counts as cell-based. As to conditions: Homo sapiens, 48 h. As for the experimental part:
as §1, §2

Another experiment deals with MDA-MB-435 cells. The experiment can be described thus: MTT viability assay. It counts as cell-based. As to conditions: Homo sapiens, 48 h. As to the method: as §1, §2
Another experiment deals with U251 cells. The experiment can be described thus: MTT viability assay. The format is cell-based. The note with it: Homo sapiens, U-251, 48 h. As for the experimental part:
as §1, §2

Another experiment concerns U87 cells. The experiment can be described thus: MTT viability assay. The format is cell-based. As to conditions: Homo sapiens, U-87 MG, 48 h. As for the experimental part:
as §1, §2

Experiment [2] concerns multiple cancer cell lines. The experiment can be described thus: MTT viability assay, summary over several lines. The format is cell-based. As for the experimental part:
as §1, §2

As to `O=C(/C=C/c1cc2ccccc2s1)OCc1c(-c2ccccc2)no[n+]1[O-]` [Compound 9e, (E)-3-(((3-(Benzo[b]thiophen-2-yl)acryloyl)oxy)methyl)-4-phenyl-1,2,5-oxadiazole 2-oxide], the “%NO2^− Release mol/mol at 100 μΜ” value in experiment [1] is “no”. The concentration for a half-maximal effect (EC50) is 55.5 µM with HeLa cells and 58.5 µM with MCF-7 cells.
On to `C/C(=N\O)c1ccc(NC(=O)COC(=O)/C(=C/c2cccs2)c2ccccc2)cc1` [Compound 6i, 2-((4-((E)-1-(Hydroxyimino)ethyl)phenyl)amino)-2-oxoethyl (E)-2-phenyl-3-(thiophen-2-yl)acrylate], for which the “%NO2^− Release mol/mol at 100 μΜ” value in experiment [1] is “no activity and no”. Also, the half-maximal effective concentration (EC50) amounted to 36.7 µM in the experiment with HeLa cells; 38.3 µM in the experiment with MCF-7 cells; 42.8 µM in the experiment with MDA-MB-231 cells; 52.9 µM with MDA-MB-435 cells; 40.9 µM with U251 cells; 45.4 µM in the experiment on U87 cells. Also, the EC50 lay in the range of 40.9 to 45.4 µM in experiment [2] (U251, U87, and MDA-MB-231, read-out: EC50 values in the remaining cell lines); 36 to 45 µM in experiment [2] (read-out: EC50 values across multiple cancer cell lines).
With `C/C(=N\O)c1ccc(NC(=O)COC(=O)/C=C/c2cccs2)cc1` [Compound 6c, 2-((4-((E)-1-(Hydroxyimino)ethyl)phenyl)amino)-2-oxoethyl (E)-3-(thiophen-2-yl)acrylate], in experiment [1], the “%NO2^− Release mol/mol at 100 μΜ” value was found to be 4%. Also, the EC50 in the experiment with HeLa cells is 83 µM; in the experiment on MCF-7 cells, above 100 µM.
